The source of these data is ChEMBL document CHEMBL6074678, “Selectively Antagonizing the NOD1-Mediated Inflammatory Signaling Pathway Mitigates the Gastric Inflammation Induced by Helicobacter pylori Infection” (J Med Chem, 2024).

Activity calls are given as the source filed them. No cut-off for these calls is given here.

What is called IC50 is the concentration that gives 50% inhibition. What is called AUC is the area under the concentration-time curve, a measure of exposure. As a reminder, the clearance is the rate of elimination divided by the concentration. By MRT inf is commonly meant a mean duration of stay, worked out from the concentration-time curve. One may read the Cmax as the highest concentration seen after dosing. One may read the bioavailability as dose-corrected exposure relative to a reference, in per cent.

The target of series [1] is T1, Nucleotide-binding oligomerization domain-containing protein 1 (Homo sapiens) (UniProt Q9Y239).
T1 sequence (whole entry): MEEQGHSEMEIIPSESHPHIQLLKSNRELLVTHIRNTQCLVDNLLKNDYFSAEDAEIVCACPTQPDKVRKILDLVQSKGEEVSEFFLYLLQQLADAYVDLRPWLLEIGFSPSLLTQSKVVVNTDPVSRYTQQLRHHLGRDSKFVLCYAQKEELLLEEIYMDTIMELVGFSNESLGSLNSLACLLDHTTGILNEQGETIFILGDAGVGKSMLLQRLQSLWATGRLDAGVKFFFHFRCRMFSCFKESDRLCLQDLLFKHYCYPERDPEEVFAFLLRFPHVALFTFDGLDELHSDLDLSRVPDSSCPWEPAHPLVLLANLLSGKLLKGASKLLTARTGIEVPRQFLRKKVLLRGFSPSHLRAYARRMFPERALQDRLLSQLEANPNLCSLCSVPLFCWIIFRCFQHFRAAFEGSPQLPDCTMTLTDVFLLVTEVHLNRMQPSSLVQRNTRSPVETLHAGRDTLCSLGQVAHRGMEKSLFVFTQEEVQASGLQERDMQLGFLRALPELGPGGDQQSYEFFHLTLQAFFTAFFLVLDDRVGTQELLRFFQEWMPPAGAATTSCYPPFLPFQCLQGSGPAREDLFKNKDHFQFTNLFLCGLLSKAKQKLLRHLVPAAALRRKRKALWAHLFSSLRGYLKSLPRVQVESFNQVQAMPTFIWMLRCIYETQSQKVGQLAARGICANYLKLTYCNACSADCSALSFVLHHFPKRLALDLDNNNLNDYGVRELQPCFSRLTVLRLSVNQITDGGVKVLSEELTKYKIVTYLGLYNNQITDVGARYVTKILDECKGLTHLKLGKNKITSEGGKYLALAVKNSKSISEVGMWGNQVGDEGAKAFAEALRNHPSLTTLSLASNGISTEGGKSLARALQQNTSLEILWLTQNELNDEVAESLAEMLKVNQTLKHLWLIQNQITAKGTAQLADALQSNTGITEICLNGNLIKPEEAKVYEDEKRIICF
Description: Antagonist activity at human NOD1 expressed in HEK-Blue cells assessed as decrease in SEAP secretion incubated for 3 hrs followed by C12-iE-DAP stimulation for 20 hrs by spectrophotometry. The class given is cell-based. The settings on record: HEK-Blue hNOD1, filed as antagonist, time 23.0 hrs.

The target of series [2] is T2, Nucleotide-binding oligomerization domain-containing protein 1 (Mus musculus, UniProt Q8BHB0).
T2 sequence (Q8BHB0 whole entry): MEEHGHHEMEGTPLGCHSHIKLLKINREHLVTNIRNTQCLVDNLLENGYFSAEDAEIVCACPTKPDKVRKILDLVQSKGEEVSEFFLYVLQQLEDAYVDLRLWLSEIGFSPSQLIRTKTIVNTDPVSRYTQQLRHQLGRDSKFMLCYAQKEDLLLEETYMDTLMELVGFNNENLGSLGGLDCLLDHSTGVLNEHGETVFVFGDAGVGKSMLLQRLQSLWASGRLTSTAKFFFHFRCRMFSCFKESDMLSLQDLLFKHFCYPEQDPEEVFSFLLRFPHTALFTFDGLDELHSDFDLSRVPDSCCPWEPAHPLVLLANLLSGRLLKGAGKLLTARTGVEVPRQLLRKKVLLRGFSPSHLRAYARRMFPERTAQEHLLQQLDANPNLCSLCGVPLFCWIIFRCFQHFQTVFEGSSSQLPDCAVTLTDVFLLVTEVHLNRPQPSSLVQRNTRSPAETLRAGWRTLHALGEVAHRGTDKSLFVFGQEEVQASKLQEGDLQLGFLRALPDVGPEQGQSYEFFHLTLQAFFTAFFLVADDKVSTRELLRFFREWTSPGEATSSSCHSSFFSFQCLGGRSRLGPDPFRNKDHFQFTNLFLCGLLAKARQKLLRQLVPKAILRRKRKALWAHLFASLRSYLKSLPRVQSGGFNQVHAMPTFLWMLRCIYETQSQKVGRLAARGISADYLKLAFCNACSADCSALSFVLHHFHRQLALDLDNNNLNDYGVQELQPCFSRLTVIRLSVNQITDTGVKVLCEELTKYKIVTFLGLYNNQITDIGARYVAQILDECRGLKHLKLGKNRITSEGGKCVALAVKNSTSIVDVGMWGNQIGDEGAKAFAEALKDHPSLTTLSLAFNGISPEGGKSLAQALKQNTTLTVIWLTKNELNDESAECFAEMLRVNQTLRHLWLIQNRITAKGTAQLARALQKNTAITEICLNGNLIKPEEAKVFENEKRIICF
In words: Antagonist activity at mouse NOD1 expressed in HEK293 cells assessed as decrease in NF-kappaB activation. The series is classed as cell-based.

Series [3] in a line: Cytotoxicity against HEK-Blue mNOD1 cells by SRB assay. The series is classed as toxicity, cell-based. The settings on record: human.
The target of series [4] is T3, Nucleotide-binding oligomerization domain-containing protein 1 (Mus musculus) (UniProt Q8BHB0).
T3 sequence (whole entry): T2 sequence (Q8BHB0 whole entry)
In words: Antagonist activity at NOD1 in mouse BMDM cells assessed as decrease in phosphorylated RIP2 level at 0.1 to 1 uM incubated for 1 hr followed by C12-iE-DAP stimulation for 30 mins by Western blot analysis. The class given is cell-based. The following applies: filed as antagonist, dose 0.1-1 µM, time 1.5 hrs. (Immunoblotting shows a protein as a band on a membrane.)

Series [5] in a line: Anti-inflammatory activity in mouse BMDM cells assessed as decrease in IL-6 mRNA level at 0.1 uM pretreated for 1 hr followed by C12-iE-DAP stimulation for 2 hrs by RT-qPCR analysis relative to control. Also on record: scale not given: the % may be the effect or the level left. The following applies: time 3 hrs. The series is classed as functional. (In general: Real-time PCR tracks product formation cycle by cycle.)

The next series concerns THP-1. Description: Anti-inflammatory activity in human THP-1 cells assessed as decrease in TNF-alpha mRNA level at 0.1 uM pretreated for 1 hr followed by C12-iE-DAP stimulation for 2 hrs by RT-qPCR analysis relative to control. The series is classed as functional. Details: scale not given: the % may be the effect or the level left. The following applies: time 3 hrs.
A short description of series [6]: AUC (infinity) in C57BL/6 mouse at 2 mg/kg, iv by LC-MS/MS analysis. The settings on record: in vivo. The class given is ADME, organism-based.
Series [7] can be described thus: Clearance in C57BL/6 mouse at 2 mg/kg, iv by LC-MS/MS analysis. The series is classed as ADME, organism-based. The settings on record: in vivo.
A short description of series [8]: Volume of distribution at steady state in C57BL/6 mouse at 2 mg/kg, iv by LC-MS/MS analysis. The class given is ADME, organism-based. The settings on record: in vivo, read-out: Vdss.
The nature of series [9]: MRT (infinity) in C57BL/6 mouse at 2 mg/kg, iv by LC-MS/MS analysis. The series is classed as ADME, organism-based. The following applies: in vivo.
The nature of series [10]: Cmax in C57BL/6 mouse at 20 mg/kg, po by LC-MS/MS analysis. The series is classed as ADME, organism-based. The settings on record: in vivo.
The nature of series [11]: Oral bioavailability in C57BL/6 mouse at 20 mg/kg by LC-MS/MS analysis. The following applies: in vivo. The series is classed as ADME, organism-based.
For series [12], the system named is Mus musculus. In words: Anti-inflammatory activity in C57BL/6 mouse assessed as inhibition in serum keratinocyte chemoattractant level at 12.5 to 50 mg/kg, po pretreated with compound for 15 mins followed by C12-iE-DAP administration measured after 2 hrs by ELISA relative to control. The class given is functional. The following applies: dose 12.5-50 mg/kg, time 135 min, 2.25 h. On the technique in general: ELISA stands for enzyme-linked immunosorbent assay.

The test system of series [13] is Mus musculus. In words: Anti-inflammatory activity in C57BL/6 mouse model of Helicobacter pylori-induced gastric inflammation assessed as reduction in IL-6 level in gastric tissue at 50 mg/kg, po pretreated with compound upto 24 hrs followed by infection of Helicobacter pylori measured upto 72 hrs. The series is classed as functional, organism-based. The settings on record: time <= 96.0 hrs.

Regarding `CS(=O)(=O)c1ccc2nc(Cl)n(-c3ccc(Cl)c(NS(=O)(=O)c4c(F)cccc4F)c3)c(=O)c2c1`, the Activity entry in series [1] is “Dose-dependent-effect”; in series [3] it was “Non-toxic”; in series [5], ~100%; in the series with THP-1, ~100%. Also, the IC50 in [2] amounted to 32 nM. In addition, in [4], the inhibition result was “Active”. The AUC in series [6] is 75.3 ng·h/mL. Moreover, the clearance in series [7] worked out at 474 mL/min/kg. Further, the Vd in series [8] worked out at 1.33 L/kg. The same molecule returned a mean residence time MRT inf in series [9] of 2.76 min. The molecule further had a Cmax in series [10] of 44.6 ng/mL. In [11], the bioavailability was found to be 4.77%. Moreover, the “inhibition (INH)” value in the series with Mus musculus [12] was ~77%. For the same molecule, the outcome with Mus musculus [13] was Active.
